These results are taken from US9266857B2, “Bicyclic AZA compounds as muscarinic M1 receptor agonists” (Heptares Therapeutics Limited, priority 2012, dated 2016).

Like-named read-outs stand apart in the source and are kept apart here.

Format in all cases: cell-based
Experiment [1] addresses T1, human muscarinic M4 receptor (Homo sapiens, UniProt P08173).
T1 construct: expressed in transfected cells
T1 sequence (P08173 1-479): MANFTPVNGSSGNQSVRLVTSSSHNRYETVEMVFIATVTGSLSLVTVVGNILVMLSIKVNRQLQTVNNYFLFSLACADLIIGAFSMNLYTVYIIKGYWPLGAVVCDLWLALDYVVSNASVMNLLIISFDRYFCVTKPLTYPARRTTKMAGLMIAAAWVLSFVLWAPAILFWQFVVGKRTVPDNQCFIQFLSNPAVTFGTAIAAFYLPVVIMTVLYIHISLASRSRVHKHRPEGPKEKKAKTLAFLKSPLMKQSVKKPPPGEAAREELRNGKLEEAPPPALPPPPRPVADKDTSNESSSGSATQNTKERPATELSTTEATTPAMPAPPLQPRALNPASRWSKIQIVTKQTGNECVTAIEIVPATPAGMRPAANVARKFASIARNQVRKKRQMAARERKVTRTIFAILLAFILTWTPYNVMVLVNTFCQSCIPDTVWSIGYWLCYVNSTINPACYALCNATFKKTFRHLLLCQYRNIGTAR
Nature of the experiment: Alphascreen Surefire phospho-ERK1/2 functional assay, M4. The following applies: for EC50: phospho-ERK1/2, read-out: pEC50 M4 (converted); for Emax: CHO. As to the method: (§1) ERK1/2 phosphorylation is a downstream consequence of both Gq/11 and Gi/o protein coupled receptor activation, making it highly suitable for the assessment of M1, M3 (Gq/11 coupled) and M2, M4 receptors (Gi/o coupled), rather than using different assay formats for different receptor subtypes. CHO cells stably expressing the human muscarinic M1, M2, M3 or M4 receptor were plated (25K/well) onto 96-well tissue culture plates in MEM-alpha+10% dialysed FBS. Once adhered, cells were serum-starved overnight. Agonist stimulation was performed by the addition of 5 μL agonist to the cells for 5 min (37° C.). Media was removed and 50 μL of lysis buffer added. After 15 min, a 4 μL sample was transferred to 384-well plate and 7 μL of detection mixture added. Plates were incubated for 2 h with gentle agitation in the dark and then read on a PHERAstar plate reader.
(§2) pEC50 and Emax figures were calculated from the resulting data for each receptor subtype.
In general terms: Alpha assays give light when donor and acceptor beads are brought close together.

Experiment [2] addresses T2, human muscarinic M3 receptor (Homo sapiens, UniProt P20309).
T2 construct: expressed in transfected cells
Description: Alphascreen Surefire phospho-ERK1/2 functional assay, M3. As to the method:
as §1, §2

In experiment [3] the target is T3, human muscarinic M1 receptor (Homo sapiens, UniProt P11229).
T3 construct: expressed in transfected cells
T3 sequence (P11229 1-460): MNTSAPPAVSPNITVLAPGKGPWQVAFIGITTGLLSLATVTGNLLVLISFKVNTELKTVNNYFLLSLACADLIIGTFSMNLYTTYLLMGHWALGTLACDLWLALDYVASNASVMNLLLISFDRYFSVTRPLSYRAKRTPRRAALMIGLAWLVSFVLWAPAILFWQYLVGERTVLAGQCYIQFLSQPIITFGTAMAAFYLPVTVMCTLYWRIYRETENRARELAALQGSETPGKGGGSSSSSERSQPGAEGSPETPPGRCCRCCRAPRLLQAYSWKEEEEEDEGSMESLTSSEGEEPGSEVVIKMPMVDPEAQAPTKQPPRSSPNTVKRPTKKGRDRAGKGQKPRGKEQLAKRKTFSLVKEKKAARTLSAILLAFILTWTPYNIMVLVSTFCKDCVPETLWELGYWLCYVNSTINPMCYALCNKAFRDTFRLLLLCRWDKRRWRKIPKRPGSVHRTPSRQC
Nature of the experiment: Alphascreen Surefire phospho-ERK1/2 functional assay, M1. The settings on record: for EC50: CHO cells stably expressing human M1, phospho-ERK1/2, read-out: pEC50 M1 (converted); for Emax: CHO. As to the method:
as §1, §2

The target in experiment [4] is T4, human muscarinic M2 receptor (Homo sapiens, UniProt P08172).
T4 construct: expressed in transfected cells
T4 sequence (P08172 1-466): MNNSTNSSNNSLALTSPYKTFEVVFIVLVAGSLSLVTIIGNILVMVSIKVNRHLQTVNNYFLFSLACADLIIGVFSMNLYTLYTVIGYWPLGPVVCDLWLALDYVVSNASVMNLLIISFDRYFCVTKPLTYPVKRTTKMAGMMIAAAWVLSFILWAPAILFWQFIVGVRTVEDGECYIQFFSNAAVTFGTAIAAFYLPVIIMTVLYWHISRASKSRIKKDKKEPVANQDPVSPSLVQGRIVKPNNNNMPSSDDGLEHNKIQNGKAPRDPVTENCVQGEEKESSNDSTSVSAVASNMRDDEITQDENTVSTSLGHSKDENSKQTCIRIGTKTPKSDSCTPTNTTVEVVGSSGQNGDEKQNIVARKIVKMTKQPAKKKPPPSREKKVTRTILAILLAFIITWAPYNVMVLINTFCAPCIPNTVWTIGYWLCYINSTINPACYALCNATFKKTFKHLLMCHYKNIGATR
Description: Alphascreen Surefire phospho-ERK1/2 functional assay, M2. As to the method: as §1, §2

The mark [5] stands for this setting: CHO cells stably expressing human M4.
[6] abbreviates: read-out: % Emax cf. ACh, M4, CHO cells stably expressing human M4, relative to ACh.
Setting [7] is: read-out: % Emax cf. ACh, M1, CHO cells stably expressing human M1, relative to ACh.

T2 sequence (P20309 whole entry): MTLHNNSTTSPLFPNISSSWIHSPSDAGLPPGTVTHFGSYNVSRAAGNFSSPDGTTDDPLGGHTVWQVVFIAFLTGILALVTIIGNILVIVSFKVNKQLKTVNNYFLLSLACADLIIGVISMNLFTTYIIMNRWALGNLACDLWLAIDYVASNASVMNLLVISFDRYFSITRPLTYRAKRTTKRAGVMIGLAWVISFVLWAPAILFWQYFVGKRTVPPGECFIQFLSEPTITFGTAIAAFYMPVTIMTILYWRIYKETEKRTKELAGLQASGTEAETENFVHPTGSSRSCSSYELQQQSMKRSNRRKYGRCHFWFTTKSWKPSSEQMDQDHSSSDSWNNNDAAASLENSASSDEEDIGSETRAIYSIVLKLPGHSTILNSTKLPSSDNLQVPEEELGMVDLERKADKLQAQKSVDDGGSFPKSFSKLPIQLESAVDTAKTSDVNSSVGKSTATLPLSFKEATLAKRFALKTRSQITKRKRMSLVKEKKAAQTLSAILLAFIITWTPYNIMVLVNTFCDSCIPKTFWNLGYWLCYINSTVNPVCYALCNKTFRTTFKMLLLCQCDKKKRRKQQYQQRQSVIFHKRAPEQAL

What is called Emax is the greatest response seen or fitted, relative to the assay's reference. In the case of `CCOC(=O)N1[C@@H]2CCC[C@H]1CC(N1CCC(C(=O)NC3(C)CCC3)CC1)C2` (mixture of isomers) [Example 6 - mixture of diastereomers, ethyl 3-{4-[(1-methylcyclobutyl)carbamoyl]piperidin-1-yl}-9-azabicyclo[3.3.1]nonane-9-carboxylate], the EC50 is 468 nM in experiment [1] (setting [5]); greater than 20000 nM in experiment [2] (CHO cells stably expressing human M3, phospho-ERK1/2, read-out: pEC50 M3 (converted)); 43.7 nM in experiment [3]; greater than 20000 nM in experiment [4] (CHO cells stably expressing human M2, phospho-ERK1/2, read-out: pEC50 M2 (converted)). Moreover, the Emax in experiment [1] (setting [6]) was determined as 54%; in experiment [2] (CHO, read-out: % Emax cf. ACh, M3) it was 5%; in experiment [3] (setting [7]) it was 151%; in experiment [4] (CHO, read-out: % Emax cf. ACh, M2), 13%.
For the molecule `CCOC(=O)N1CCC2(CC(N3CCC(C(=O)NC(C)(C)CC)CC3)C2)C1` (mixture of isomers) [Example 16 - mixture of diastereomers, ethyl 2-{4-[(2-methylbutan-2-yl)carbamoyl]piperidin-1-yl}-6-azaspiro[3.4]octane-6-carboxylate], the EC50 in experiment [1] (setting [5]) was 646 nM; in experiment [3] it was 309 nM. The Emax in experiment [1] (read-out: % Emax cf. ACh, M4) came out at 56%; in experiment [3] (read-out: % Emax cf. ACh, M1), 113%.
On to `CCOC(=O)N1CCC2(CC(N3CCC(C(=O)NCC4CCC4)CC3)C2)C1` (mixture of isomers) [Example 19 - mixture of diastereomers, ethyl 2-{4-[(cyclobutylmethyl)carbamoyl]piperidin-1-yl}-6-azaspiro[3.4]octane-6-carboxylate], for which the values for the EC50 in experiment [1] (setting [5]) and in experiment [3] were 1020 nM and 363 nM, respectively. The maximum response (Emax) in experiment [1] (read-out: % Emax cf. ACh, M4) amounted to 42%; in experiment [3] (read-out: % Emax cf. ACh, M1), 109%.
For the molecule `[2H]C([2H])([2H])C([2H])([2H])OC(=O)N1CCC2(CC(N3CCC(C(=O)NC4(C([2H])([2H])[2H])C([2H])([2H])C([2H])([2H])C4([2H])[2H])CC3)C2)C1` (mixture of isomers) [Example 31 - mixture of diastereomers, (1,1,2,2,2-pentadeutero)ethyl 2-(4-{[1-(1,1,1-trideuteromethyl)-2,2,3,3,4,4-hexadeuterocyclobutyl]carbamoyl}piperidin-1-yl)-6-azaspiro[3.4]octane-6-carboxylate], the EC50 in experiment [1] (setting [5]) is 646 nM; in experiment [3], 407 nM. Further, the Emax in experiment [1] (read-out: % Emax cf. ACh, M4) was determined as 77%; in experiment [3] (read-out: % Emax cf. ACh, M1) it was 110%.
For the molecule `CCOC(=O)N1C2CCC1CC(N1CCC(C(=O)NC3(C)CCC3)CC1)C2` (single isomer, unassigned) [Example 1 - Isomer 1, ethyl 3-{4-[(1-methylcyclobutyl)carbamoyl]piperidin-1-yl}-8-azabicyclo[3.2.1]octane-8-carboxylate], the EC50 was 1020 nM in experiment [1] (setting [5]) and 324 nM in experiment [3]. Further, in experiment [1] (CHO cells stably expressing human M4, relative to ACh, listed as 1 - Isomer 1), the “% Emax cf. ACh, M4” value is 51%. In experiment [3] (setting [7]), the Emax came to 99%.
As for `CCOC(=O)N1C2CCC1CC(N1CCC(F)(C(=O)NC3(C)CCC3)CC1)C2` (single isomer, unassigned) [Example 4 - Isomer 2, ethyl 3-{4-fluoro-4-[(1-methylcyclobutyl)carbamoyl]piperidin-1-yl}-8-azabicyclo[3.2.1]octane-8-carboxylate], the EC50 was 1070 nM in experiment [1] (setting [5]) and 145 nM in experiment [3]. For the same molecule, the maximal response (Emax) in experiment [1] (setting [6]) was determined as 44%; in experiment [3] (setting [7]) it was 111%.
With `CCOC(=O)N1CCC2(CC(N3CCC(C(=O)NC4(C)CCC4)CC3)C2)C1` (single isomer, unassigned) [Example 9 - Isomer 1, ethyl 2-{4-[(1-methylcyclobutyl)carbamoyl]piperidin-1-yl}-6-azaspiro[3.4]octane-6-carboxylate], the EC50 was 589 nM in experiment [1] (setting [5]) and 302 nM in experiment [3]. Besides, the Emax in experiment [1] (read-out: % Emax cf. ACh, M4) was determined as 67%; in experiment [3] (read-out: % Emax cf. ACh, M1), 102%.
On the same counts, the results for `[2H]C([2H])([2H])C1(NC(=O)C2CCN(C3CC4(CCN(C(=O)OCC)C4)C3)CC2)C([2H])([2H])C([2H])([2H])C1([2H])[2H]` (single isomer, unassigned) [Example 22 - Isomer 2, ethyl 2-(4-{[1-(1,1,1-trideuteromethyl)-2,2,3,3,4,4-hexadeuterocyclobutyl]carbamoyl}piperidin-1-yl)-6-azaspiro[3.4]octane-6-carboxylate] are 209 nM, 79.4 nM, 67% and 103%.
For the molecule `CCOC(=O)N1CCC2(CC(N3CCC(C(=O)NC4(CF)CCC4)CC3)C2)C1` (single isomer, unassigned) [Example 23 - Isomer 2, ethyl 2-(4-{[1-(fluoromethyl)cyclobutyl]carbamoyl}piperidin-1-yl)-6-azaspiro[3.4]octane-6-carboxylate], the EC50 is 219 nM in experiment [1] (setting [5]) and 155 nM in experiment [3]. Also, the maximum response (Emax) in experiment [1] (read-out: % Emax cf. ACh, M4) is 67%; in experiment [3] (read-out: % Emax cf. ACh, M1), 90%.
On the same counts, the results for `[2H]C([2H])([2H])COC(=O)N1CCC2(CC(N3CCC(C(=O)NC4(C([2H])([2H])[2H])CCC4)CC3)C2)C1` (single isomer, unassigned) [Example 26 - Isomer 2, (2,2,2-trideutero)ethyl 2-(4-{[1-(1,1,1-trideuteromethyl)cyclobutyl]carbamoyl}piperidin-1-yl)-6-azaspiro[3.4]octane-6-carboxylate] are 257 nM, 81.3 nM, 110% and 108%.
In the case of `[2H]C([2H])([2H])COC(=O)N1CCC2(CC(N3CCC(C(=O)NC4(CF)CCC4)CC3)C2)C1` (single isomer, unassigned) [Example 28 - Isomer 2, (2,2,2-trideutero)ethyl 2-(4-{[1-(fluoromethyl)cyclobutyl]carbamoyl}piperidin-1-yl)-6-azaspiro[3.4]octane-6-carboxylate], the EC50 in experiment [1] (setting [5]) was 309 nM; in experiment [3] it was 324 nM. In addition, the Emax in experiment [1] (read-out: % Emax cf. ACh, M4) was 106%; in experiment [3] (read-out: % Emax cf. ACh, M1), 120%.
On to `[2H]C([2H])([2H])C1(NC(=O)C2CCN(C3CC4(CCN(C(=O)OC([2H])([2H])C([2H])([2H])[2H])C4)C3)CC2)CCC1` (single isomer, unassigned) [Example 30 - Isomer 2, (1,1,2,2,2-pentadeutero)ethyl 2-(4-{[1-(1,1,1-trideuteromethyl)cyclobutyl]carbamoyl}piperidin-1-yl)-6-azaspiro[3.4]octane-6-carboxylate], for which the EC50 in experiment [1] (setting [5]) is 195 nM; in experiment [3], 85.1 nM. Further, the Emax in experiment [1] (read-out: % Emax cf. ACh, M4) was determined as 111%; in experiment [3] (read-out: % Emax cf. ACh, M1) it was 105%.
